Experimental data published in US12629364B2, “Methods of treating cancers overexpressing CARM1 with EZH2 inhibitors and platinum-based antineoplastic drugs” (The Wistar Institute of Anatomy and Biology, priority 2016, dated 2026).

System: A1847 parental and CARM1 knockout cells
Assay: Epigenetic targeting small molecule set screen (14-day colony formation)
Format: cell-based, Human
Details: A1847 parental vs CARM1 knockout; 14 days; normalized to vehicle
Procedure: FIG. 26 illustrates that CARM1-expressing cells are selectively sensitized to EZH2 inhibitors. Equal number of parental control or CARM1 knockout […] cells were plated and treated with each of the 23 individual epigenetic inhibitors for 14 days. The media with the inhibitors was refreshed every 3 days. Cell growth was quantified as integrated density using NIH Image J software. Quantification of the average integrated density graphed as a scatter plot. The X-axis indicates the relative growth of treated CARM1 high parental […] cells compared with DMSO vehicle controls. Y-axis indicates the relative growth of treated CARM1 knockout […] cells compared with DMSO vehicle controls. n=4; and error bars represents SEM. FIG. 27 illustrates a table of EZH2 inhibitors that are selective against CARM1 expression. CARM1-high parental controls and CARM1 knockout […] cells were treated with the indicated concentration of the small molecules in a 14-day colony formation assay. Integrated density for each well was calculated using NIH Image J software. The relative growth of the indicated cells was determined by normalizing to the vehicle control treated cells. n=4 and p-value was calculated using a two-tailed t-test. FIG. 28 illustrates representative images of colonies formed by the cells treated with the indicated inhibitors. GSK126 and UNC1999 representative positive hits from the screen. […] parental and CARM1 knockout cells were plated in 24-well plates and treated with 24 epigenetic compounds. Cell medium was changed every three days with appropriate drug doses for 14 days or until control wells became confluent. Colonies were washed twice with PBS and fixed with 10% methanol and 10% acetic acid in distilled water. Fixed colonies were stained with 0.005% crystal violet. Integrated density was measured using NIH ImageJ software as a surrogate for cell growth.

Row | Compound | selective growth suppression of CARM1-expressing versus CARM1 KO cells
1 | CC(=O)Nc1ccc(C(=O)Nc2ccccc2N)cc1 [CI994] | equally effective in suppressing the growth of both CARM-expressing and KO cells
2 | CCCc1cc(C)[nH]c(=O)c1CNC(=O)c1cc(-c2ccc(N3CCN(C(C)C)CC3)nc2)cc2c1cnn2C(C)C [UNC1999, 1-isopropyl-6-(6-(4-isopropylpiperazin-1-yl)pyridin-3-yl)-N-((6-methyl-2-oxo-4-propyl-1,2-dihydropyridin-3-yl)methyl)-1H-indazole-4-carboxamide] | showed selectivity against CARM1-expressing cells
